Measured values taken from patent publication US11236129B2, “IL-17A binding peptides and medical uses thereof” (Dompe' Farmaceutici S.P.A., priority 2018, dated 2022).
Where two headings read alike, the source gives them in different places. Residues, ends and D or L forms follow the SMILES beside them.

Tests used:
[1] = type: physicochemical; settings: pH 7.8
Method: Each lyophilized peptide was weighed in an amber vial. A calculated volume of phosphate buffered solution at pH 7.8 was added in order to directly obtain 10 mM Stock Solutions. The recovered suspensions were stirred for 30 minutes by orbital shaker incubator at 37° C. Subsequent dilutions were performed to obtain the more diluted stock solutions for the less soluble compounds.
In order to evaluate the stability and the solubility, all the stock solutions were stored at 25° C. The title was evaluated by UHPLC-MS analysis in comparison with the standard solutions, at 3 time points: T0, 3 days, 1 week.
The chromatographic profile was evaluated for the quantitative assay while the MS spectra were detected as support in the stability studies.
Each peptide was weighed and directly diluted at 100 μM with the phosphate buffer at pH 7.8. The solutions were stirred for 5 minutes by vortex and heated at 37° C. for 20 minutes. The obtained standard solution was stored at 25° C. in the dark under controlled temperature.
A portion of the stock solutions was collected in an amber vial and diluted to 100 μM by phosphate buffer at pH 7.8 (dilution factor, 1:100).
Reversed-phase UHPLC was performed operating at a flow rate of 0.3 ml/min with a Luna Omega Polar C18 column ([…] 1.6 μm, 2.1×100 mm). Solvent A was 0.5% Formic Acid in water and solvent B was 0.5% Formic Acid in acetonitrile. First, samples were loaded onto the column and washed isocratically at 10% B for 3 min. Then, a gradient of 10-95% B was run over 22 min, held at 95% for 2 min, and then decreased to 10% over 1 min and held, for the pressure stabilization, for 5 min. UV Absorption was monitored by DAD (220-400 nm). ESI-MS ion trap was used for the monitoring of TIC.

[2] = Isoelectric point, log D and log P (SiriusT3); type: physicochemical; settings: for IP (isoelectric point): 25±1° C., 0.15 M KCl; for Log D (7.4): pH 7.4
Method: The main physicochemical properties (Isoelectric point (IP), log D (7.4) and log P) of the peptides of Table 8 below were determined by using the SiriusT3 apparatus (Sirius Analytical Instruments Ltd., East Sussex, UK) equipped with an Ag/AgCl double junction reference pH electrode, a Sirius D-PAS spectrometer and a turbidity sensing device. […] An overhead stirrer was used and a temperature probe (Peltier controller) monitored the temperature during the course of the titration. The titration experiments were conducted in 0.15 M KCl Ionic Strength Adjusted solution (ISA water) under a nitrogen atmosphere at a temperature of 25±1° C. All tests were performed using standardized 0.5 M KOH and 0.5 M HCl as titration reagents, for the partition coefficient tests a saturated Octanol in ISA water (5% of ISA water) was used as partition solvent. The pKas were determined by potentiometric method by pH-metric titration. The powder (around 0.5 mg) was dissolved in 1.5 ml of ISA water and the titration was performed in triplicate in the pH range 2.0−12.0.

[3] = molecular target: IL-17RA/IL17RC dimerization induced by IL-17A (Homo sapiens, UniProt Q16552); test: IL-17RA/IL17RC dimerization assay in response to IL-17A (PathHunter Cytokine Receptor Assay); type: cell-based; settings: IL-17A at EC80; read-out: IC50 in IL-17RA/IL7RC dimerization assay
Chain of IL-17RA/IL17RC dimerization induced by IL-17A (Q16552 24-155): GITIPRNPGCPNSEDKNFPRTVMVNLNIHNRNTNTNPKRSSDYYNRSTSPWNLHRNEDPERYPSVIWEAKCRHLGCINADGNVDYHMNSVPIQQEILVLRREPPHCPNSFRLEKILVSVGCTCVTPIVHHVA
In short: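 Receptor dimerization was read as chemiluminescence from complemented β-galactosidase after IL-17A at EC80 concentration for 6–16 h at 37 °C. Peptides were added 60 min before agonist, at 37 °C or room temperature, with 1% vehicle. Percent inhibition used the EC80-stimulated and vehicle wells as references.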

[4] = octanol/ISA water, read-out: logP
[5] = pH 7.4, pH 7.4, octanol/ISA water, read-out: Log D (7.4)

Row | Compound | solubility [1] | IP (isoelectric point) [2] | logP ([2]; logP) | logD ([2]; pH 7.4, Log D (7.4)) | IC50 [3] | logP [2, 4] | logD [2, 5] | logP [2] | Log D (7.4) [2]
1 | CC[C@H](C)[C@H](NC(C)=O)C(=O)N[C@@H](Cc1c[nH]cn1)C(=O)N[C@H](C(=O)N[C@H](C(=O)N[C@H](C(=O)N1CCC[C@H]1C(=O)N[C@@H](C)C(=O)N[C@@H](CC(=O)O)C(=O)N[C@@H](CC(C)C)C(=O)N[C@@H](Cc1c[nH]c2ccccc12)C(=O)N[C@@H](CC(=O)O)C(=O)N[C@@H](Cc1c[nH]c2ccccc12)C(=O)N[C@H](C(=O)N[C@@H](CC(N)=O)C(=O)N[C@@H](CCCNC(=N)N)C(N)=O)[C@@H](C)CC)[C@@H](C)CC)[C@@H](C)O)C(C)C [SEQ ID NO: 10] (Ac-IHVTIPADLWDWINR-NH2) | > 10 mM | 5.14 | 0.09 | -3.66 | < 400 nM |  |  |  | 
2 | CC[C@H](C)[C@H](NC(=O)[C@H](Cc1c[nH]c2ccccc12)NC(=O)[C@H](CCC(=O)O)NC(=O)[C@H](Cc1ccc(O)cc1)NC(=O)[C@H](CC(C)C)NC(=O)[C@H](CC(=O)O)NC(=O)[C@H](C)NC(=O)[C@@H]1CCCN1C(=O)[C@@H](NC(=O)[C@@H](NC(=O)[C@@H](NC(=O)[C@H](CCSC)NC(=O)[C@@H](NC(C)=O)C(C)C)C(C)C)[C@@H](C)O)[C@@H](C)CC)C(=O)N[C@@H](CCC(=O)O)C(=O)N[C@@H](CCC(=O)O)C(=O)N[C@@H](CCCNC(=N)N)C(=O)N[C@@H](CCC(N)=O)C(=O)N[C@H](C(=O)N[C@@H](CCCCN)C(=O)N[C@H](C(=O)N[C@@H](Cc1c[nH]c2ccccc12)C(=O)N[C@@H](Cc1ccccc1)C(=O)N[C@@H](CCC(N)=O)C(=O)N[C@@H](CC(N)=O)C(=O)N[C@@H](CCCNC(=N)N)C(=O)N[C@@H](CCCNC(=N)N)C(=O)N[C@@H](CCSC)C(=O)N[C@@H](CCCCN)C(=O)N[C@@H](Cc1c[nH]c2ccccc12)C(=O)N[C@@H](CCCCN)C(=O)N[C@@H](CCCCN)C(N)=O)[C@@H](C)CC)[C@@H](C)CC [SEQ ID NO: 28] (Ac-VMVTIPADLYEWIEERQIKIWFQNRRMKWKK-NH2) | ≥ 0.1 mM | 12.25 |  |  | < 1000 nM |  |  | −6.36 | −6.44
3 | CC[C@H](C)[C@H](NC(C)=O)C(=O)N[C@@H](Cc1c[nH]cn1)C(=O)N[C@H](C(=O)N[C@H](C(=O)N[C@H](C(=O)N1CCC[C@H]1C(=O)N[C@@H](C)C(=O)N[C@@H](CC(=O)O)C(=O)N[C@@H](CC(C)C)C(=O)N[C@@H](Cc1ccc(O)cc1)C(=O)N[C@@H](CCC(=O)O)C(=O)N[C@@H](Cc1c[nH]c2ccccc12)C(=O)N[C@H](C(=O)N[C@@H](CC(N)=O)C(=O)N[C@@H](CCCCN)C(N)=O)[C@@H](C)CC)[C@@H](C)CC)[C@@H](C)O)C(C)C [SEQ ID NO: 13] (Ac-IHVTIPADLYEWINK-NH2) | >10 mM | 6.06 |  |  |  |  |  | −0.49 | 1.15
4 | CC[C@H](C)[C@H](NC(C)=O)C(=O)N[C@@H](Cc1c[nH]cn1)C(=O)N[C@H](C(=O)N[C@H](C(=O)N[C@H](C(=O)N1CCC[C@H]1C(=O)N[C@@H](C)C(=O)N[C@@H](CC(=O)O)C(=O)N[C@@H](CC(C)C)C(=O)N[C@@H](Cc1ccc(O)cc1)C(=O)N[C@@H](CCC(=O)O)C(=O)N[C@@H](Cc1c[nH]c2ccccc12)C(=O)N[C@H](C(=O)N[C@@H](CC(N)=O)C(=O)N[C@@H](CCCCN)C(N)=O)[C@@H](C)CC)[C@@H](C)CC)[C@@H](C)O)C(C)C [SEQ ID NO: 7] (Ac-IHVTIPADLYEWINK-NH2) | > 10 mM | 5.19 |  |  |  |  |  | −0.86 | −1.41

Results, then the compound that gave them:

Row | solubility [1] | IP (isoelectric point) [2] | logP ([2]; logP) | logD ([2]; pH 7.4, Log D (7.4)) | IC50 [3] | logP [2, 4] | logD [2, 5] | logP [2] | Log D (7.4) [2] | Compound
5 | < 0.05 mM | 8.99 |  |  | < 500 nM | -0.21 | -3.59 |  |  | CC(=O)N[C@H](C(=O)N[C@@H](Cc1c[nH]cn1)C(=O)N[C@H](C(=O)N[C@H](C(=O)N[C@@H](Cc1ccccc1)C(=O)N1CCC[C@H]1C(=O)N[C@@H](C)C(=O)N[C@@H](CC(=O)O)C(=O)N[C@@H](CC(C)C)C(=O)N[C@@H](Cc1c[nH]c2ccccc12)C(=O)N[C@@H](CCC(=O)O)C(=O)N[C@@H](Cc1c[nH]c2ccccc12)C(=O)N[C@H](C(=O)N[C@@H](CCCNC(=N)N)C(=O)N[C@@H](CCCNC(=N)N)C(N)=O)C(C)C)[C@@H](C)O)C(C)C)C(C)C [SEQ ID NO: 114] (Ac-VHVTFPADLWEWVRR-NH2)
6 | ≥ 0.1 mM | 8.13 |  |  | < 1000 nM | -1.09 | -1.24 |  |  | CC[C@H](C)[C@H](NC(=O)[C@H](Cc1c[nH]c2ccccc12)NC(=O)[C@H](CCC(=O)O)NC(=O)[C@H](Cc1ccc(O)cc1)NC(=O)[C@H](CC(C)C)NC(=O)[C@H](CC(=O)O)NC(=O)[C@H](C)NC(=O)[C@@H]1CCCN1C(=O)[C@@H](NC(=O)[C@@H](NC(=O)[C@@H](NC(=O)[C@H](CCSC)NC(=O)[C@@H](NC(=O)CNC(=O)[C@H](CCCCN)NC(=O)CNC(=O)[C@@H]1CCCN1C(=O)[C@@H](NC(C)=O)C(C)C)C(C)C)C(C)C)[C@@H](C)O)[C@@H](C)CC)C(=O)N[C@@H](CCC(=O)O)C(=O)N[C@@H](CCC(=O)O)C(N)=O [SEQ ID NO: 36] (Ac-VPGKGVMVTIPADLYEWIEE-NH2)
7 | > 10 mM | 12.25 |  |  | < 1000 nM |  |  |  |  | CC[C@H](C)[C@H](NC(=O)[C@H](Cc1c[nH]c2ccccc12)NC(=O)[C@H](CCC(=O)O)NC(=O)[C@H](Cc1ccc(O)cc1)NC(=O)[C@H](CC(C)C)NC(=O)[C@H](CC(=O)O)NC(=O)[C@H](C)NC(=O)[C@@H]1CCCN1C(=O)[C@@H](NC(=O)[C@@H](NC(=O)[C@@H](NC(=O)[C@H](CCSC)NC(=O)[C@@H](NC(=O)[C@H](CCCNC(=N)N)NC(=O)[C@H](CCCNC(=N)N)NC(=O)[C@H](CCCNC(=N)N)NC(=O)[C@H](CCCNC(=N)N)NC(=O)[C@H](CCCNC(=N)N)NC(=O)[C@H](CCCNC(=N)N)NC(=O)[C@H](CCCNC(=N)N)NC(=O)[C@H](CCCNC(=N)N)NC(C)=O)C(C)C)C(C)C)[C@@H](C)O)[C@@H](C)CC)C(=O)N[C@@H](CCC(=O)O)C(=O)N[C@@H](CCC(=O)O)C(N)=O [SEQ ID NO: 29] (Ac-RRRRRRRRVMVTIPADLYEWIEE-NH2)
8 | ≥ 0.1 mM | 4.46 |  |  | < 1000 nM | 1.99 | -1.06 |  |  | CC[C@H](C)[C@H](NC(=O)[C@H](Cc1c[nH]c2ccccc12)NC(=O)[C@H](CCC(=O)O)NC(=O)[C@H](Cc1ccc(O)cc1)NC(=O)[C@H](CC(C)C)NC(=O)[C@H](CC(=O)O)NC(=O)[C@H](C)NC(=O)[C@@H]1CCCN1C(=O)[C@@H](NC(=O)[C@@H](NC(=O)[C@@H](NC(=O)[C@H](CCSC)NC(=O)[C@@H](NC(=O)[C@H](Cc1c[nH]c2ccccc12)NC(=O)[C@@H](NC(=O)[C@H](CCC(=O)O)NC(=O)[C@H](Cc1c[nH]c2ccccc12)NC(=O)[C@H](Cc1c[nH]c2ccccc12)NC(=O)[C@@H](NC(=O)[C@H](CCC(=O)O)NC(=O)[C@H](CCCCN)NC(=O)CNC(=O)CNC(C)=O)[C@@H](C)O)[C@@H](C)O)C(C)C)C(C)C)[C@@H](C)O)[C@@H](C)CC)C(=O)N[C@@H](CCC(=O)O)C(=O)N[C@@H](CCC(=O)O)C(N)=O [SEQ ID NO: 33] (Ac-GGKETWWETWVMVTIPADLYEWIEE-NH2)
9 | > 10 mM | 5.14 |  |  |  | -5.88 | -3.46 |  |  | CC[C@H](C)[C@H](NC(=O)[C@H](Cc1c[nH]c2ccccc12)NC(=O)[C@H](CCC(=O)O)NC(=O)[C@H](Cc1ccc(O)cc1)NC(=O)[C@H](CC(C)C)NC(=O)[C@H](CC(=O)O)NC(=O)[C@H](C)NC(=O)[C@@H]1CCCN1C(=O)[C@@H](NC(=O)[C@@H](NC(=O)[C@@H](NC(=O)[C@H](CCSC)NC(=O)[C@@H](NC(=O)CNC(=O)[C@H](C)NC(=O)CNC(=O)[C@@H]1CCCN1C(=O)[C@@H](NC(=O)CNC(=O)[C@H](C)NC(=O)CNC(=O)[C@@H]1CCCN1C(=O)[C@@H](NC(C)=O)C(C)C)C(C)C)C(C)C)C(C)C)[C@@H](C)O)[C@@H](C)CC)C(=O)N[C@@H](CCC(=O)O)C(=O)N[C@@H](CCC(=O)O)C(N)=O [SEQ ID NO: 38]
